pKi: −log10 of the molar value.
Biological target: human IRAK4 (Homo sapiens (Human), UniProt Q9NWZ3)
Assay: IRAK4 kinase inhibition, Transcreener fluorescence polarization ADP assay
Format: biochemical
Settings: recombinant full-length His6-IRAK4; 125 uM ATP; 90 min; Ki computed using ATP Km 642 uM
Experimental: Compounds were assayed for inhibition of human IRAK4 and IRAK1 catalytic activity using recombinant enzyme produced from insect cells. Full-length IRAK4 protein, carrying an N-terminal His6-Tag, was obtained from Life Technologies (Carlsbad, Calif., USA). The IRAK1 construct was produced internally and was comprised of IRAK1 residues Arg194 to Ser712, preceded by an NH2-terminal His6 tag and the coding sequence for glutathione-S-transferase.

Chain of human IRAK4 (Q9NWZ3 whole entry): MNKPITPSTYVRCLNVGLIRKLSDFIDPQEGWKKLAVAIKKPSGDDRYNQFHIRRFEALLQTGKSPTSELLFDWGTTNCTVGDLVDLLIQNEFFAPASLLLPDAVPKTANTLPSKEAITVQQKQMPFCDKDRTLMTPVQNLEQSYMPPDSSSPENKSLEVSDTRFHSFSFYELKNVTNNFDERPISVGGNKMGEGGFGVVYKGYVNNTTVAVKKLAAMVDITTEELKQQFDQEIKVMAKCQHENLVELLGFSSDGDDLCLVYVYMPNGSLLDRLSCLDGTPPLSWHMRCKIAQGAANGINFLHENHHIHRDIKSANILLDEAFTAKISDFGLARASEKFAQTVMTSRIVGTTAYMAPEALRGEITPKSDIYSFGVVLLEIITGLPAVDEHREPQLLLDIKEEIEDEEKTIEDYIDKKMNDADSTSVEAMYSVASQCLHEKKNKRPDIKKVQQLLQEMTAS

With C[C@]1(CO)Cc2cc(NC(=O)c3cnn4cccnc34)c(N3CCOCC3)c(Cl)c2O1 [Example 80, (R)—N-(7-Chloro-2-(hydroxymethyl)-2-methyl-6-morpholino-2,3-dihydrobenzofuran-5-yl)pyrazolo[1,5-a]pyrimidine-3-carboxamide] as the compound, how does the pKi read?
Its pKi is 7.47.

How did the pKi turn out when CC1(CO)Cc2cc(NC(=O)c3cnn4cc(Cl)cnc34)c(N3CCN(CC(F)F)CC3)cc2O1 (centres unmarked) [Example 168] was run?
Its pKi is 8.44.

Cc1cnc2c(C(=O)Nc3cc4c(cc3N3CCN(CC(F)F)CC3)OC(C)(CO)C4)cnn2c1 (centres unmarked) [Example 325, N-(6-(4-(2,2-Difluoroethyl)piperazin-1-yl)-2-(hydroxymethyl)-2-methyl-2,3-dihydrobenzofuran-5-yl)-6-methylpyrazolo[1,5-a]pyrimidine-3-carboxamide] was tested. Which pKi did it give?
Its pKi is 8.22.

How did the pKi turn out when CC(C)(O)[C@]1(C)Cc2cc(NC(=O)c3cnn4cccnc34)c(O[C@H]3CC[C@H](O)CC3)cc2O1 [Example 314, N-[(2S)-6-(trans-4-Hydroxycyclo-hexoxy)-2-(1-hydroxy-1-methyl-ethyl)-2-methyl-3H-benzofuran-5-yl]pyrazolo[1,5-a]pyrimidine-3-carboxamide] was run?
The pKi was 7.19.

With CC(CC(C)(C)O)N1Cc2cc(NC(=O)c3cnn4cccnc34)c(N3CCOCC3)cc2C1=O (stereo in doubt) [Example 544, N-[2-[(1S)-3-hydroxy-1,3-dimethyl-butyl]-6-morpholino-1-oxo-isoindolin-5-yl]pyrazolo[1,5-a]pyrimidine-3-carboxamide] as the compound, how does the pKi read?
Its pKi is 7.89.

How did the pKi turn out when CC1(C)Cc2cc(NC(=O)c3cnn4cccnc34)c(N3CCC(c4nnco4)CC3)cc2O1 [Example 235, N-(6-(4-(1,3,4-Oxadiazol-2-yl)piperidin-1-yl)-2,2-dimethyl-2,3-dihydrobenzofuran-5-yl)pyrazolo[1,5-a]pyrimidine-3-carboxamide] was run?
The pKi was 8.40.

C[C@]1(O)COc2cc(N3CCC([C@@](C)(O)C(F)(F)F)CC3)c(NC(=O)c3cnn4cccnc34)cc2C1 (single isomer, unassigned) [Example 422] was tested. Which pKi did it give?
The pKi was 6.96.

With CC1(C)Cc2cc(NC(=O)c3cnn4cccnc34)c(OCC3CC3)cc2O1 [Example 298, N-(6-(Cyclopropylmethoxy)-2,2-dimethyl-2,3-dihydrobenzofuran-5-yl)pyrazolo[1,5-α]pyrimidine-3-carboxamide] as the compound, how does the pKi read?
The pKi was 8.15.

CC1(C)Cc2cc(NC(=O)c3cnn4cccnc34)c(N3CCN(CC(=O)NCC4CCCO4)CC3)cc2O1 (centres unmarked) [Example 440, N-(2,2-dimethyl-6-(4-(2-oxo-2-(((tetrahydrofuran-2-yl)methyl)amino)ethyl)piperazin-1-yl)-2,3-dihydrobenzofuran-5-yl)pyrazolo[1,5-a]pyrimidine-3-carboxamide] was tested. Which pKi did it give?
Its pKi is 7.28.

Cc1c2c(cc(NC(=O)c3cnn4cccnc34)c1N1CCOCC1)C[C@@](C)(CO)O2 [Example 84, (S)—N-(2-(hydroxymethyl)-2,7-dimethyl-6-morpholino-2,3-dihydrobenzofuran-5-yl)pyrazolo[1,5-a]pyrimidine-3-carboxamide] was tested. Which pKi did it give?
Its pKi is 7.62.

With O=C1COc2cc(N3CCC(CO)CC3)c(NC(=O)c3cnn4cccnc34)cc2N1 [Example 2, N-(7-(4-(Hydroxymethyl)piperidin-1-yl)-3-oxo-3,4-dihydro-2H-benzo[b][1,4]oxazin-6-yl)pyrazolo[1,5-a]pyrimidine-3-carboxamide] as the compound, how does the pKi read?
The pKi was 7.59.

CC1(C)Cc2cc(NC(=O)c3cnn4cccnc34)c(N3CCC(C)(C(N)=O)CC3)cc2O1 [Example 184, N-[6-(4-carbamoyl-4-methyl-1-piperidyl)-2,2-dimethyl-3H-benzofuran-5-yl]pyrazolo[1,5-a]pyrimidine-3-carboxamide] was tested. Which pKi did it give?
The pKi was 8.51.

CC1(C)Cc2cc(NC(=O)c3cnn4cc(C(F)F)cnc34)c(N3CCOCC3)cc2O1 [Example 91, 6-(Difluoromethyl)-N-(2,2-dimethyl-6-morpholino-3H-benzofuran-5-yl)pyrazolo[1,5-a]pyrimidine-3-carboxamide] was tested. Which pKi did it give?
Its pKi is 7.41.

CC1(C)COc2cc(N3CCOCC3)c(NC(=O)c3cnn4cccnc34)cc2N1 [Example 82, N-(3,3-Dimethyl-7-morpholino-3,4-dihydro-2H-benzo[b][1,4]oxazin-6-yl)pyrazolo[1,5-a]pyrimidine-3-carboxamide] was tested. Which pKi did it give?
Its pKi is 6.72.

How did the pKi turn out when O=C(Nc1cc2c(cc1N1CCOCC1)C(=O)N(C1CCOC1)C2)c1cnn2cccnc12 (single isomer, unassigned) [Example 275, N-(6-morpholino-1-oxo-2-(tetrahydrofuran-3-yl)isoindolin-5-yl)pyrazolo[1,5-a]pyrimidine-3-carboxamide] was run?
The pKi was 7.47.

How did the pKi turn out when NC(=O)CN1CCN(c2cc3c(cc2NC(=O)c2cnn4cccnc24)CN(CC(F)(F)F)C3=O)CC1 [Example 265, N-[6-[4-(2-Amino-2-oxo-ethyl)piperazin-1-yl]-1-oxo-2-(2,2,2-trifluoroethyl)isoindolin-5-yl]pyrazolo[1,5-a]pyrimidine-3-carboxamide] was run?
The pKi was 8.40.

Cc1noc(CN2CCN(c3cc4c(cc3NC(=O)c3cnn5cccnc35)CC(C)(C)O4)CC2)n1 [Example 459, N-(2,2-dimethyl-6-(4-((3-methyl-1,2,4-oxadiazol-5-yl)methyl)piperazin-1-yl)-2,3-dihydrobenzofuran-5-yl)pyrazolo[1,5-a]pyrimidine-3-carboxamide] was tested. Which pKi did it give?
The pKi was 7.80.

O=C(Nc1cc2c(cc1N1CCOCC1)S(=O)(=O)CCN2)c1cnn2cccnc12 [Example 402, N-(7-Morpholino-1,1-dioxido-3,4-dihydro-2H-benzo[b][1,4]thiazin-6-yl)pyrazolo[1,5-a]pyrimidine-3-carboxamide] was tested. Which pKi did it give?
Its pKi is 7.72.

How did the pKi turn out when “N-[(2S)-6-[4-(2,2-difluoroethyl)piperazin-1-yl]-2-(hydroxymethyl)-2-methyl-3H-benzofuran-5-yl]-6-fluoro-pyrazolo[1,5-a]pyrimidine-3-carboxamide [Example 495]” was run?
The pKi was 7.77.

How did the pKi turn out when CC1(C)Cc2cc(NC(=O)c3cnn4cccnc34)c(N3CCC4(COC4)C3)cc2O1 [Example 107, N-(2,2-dimethyl-6-(2-oxa-6-azaspiro[3.4]octan-6-yl)-2,3-dihydrobenzofuran-5-yl)pyrazolo[1,5-a]pyrimidine-3-carboxamide] was run?
Its pKi is 7.10.

C[C@@]1(C2CC2)Cc2cc(NC(=O)c3cnn4cccnc34)c(N3CCN(CC(F)F)CC3)cc2O1 [Example 160, (S)—N-(2-Cyclopropyl-6-(4-(2,2-difluoroethyl)piperazin-1-yl)-2-methyl-2,3-dihydrobenzofuran-5-yl)pyrazolo[1,5-a]pyrimidine-3-carboxamide] was tested. Which pKi did it give?
Its pKi is 8.32.

With CCN1CCC2(CC1)Cc1cc(NC(=O)c3cnn4cccnc34)c(N3CCOCC3)cc1O2 [Example 502, N-(1′-ethyl-6-morpholino-3H-spiro[benzofuran-2,4′-piperidin]-5-yl)pyrazolo[1,5-a]pyrimidine-3-carboxamide] as the compound, how does the pKi read?
Its pKi is 8.24.

How did the pKi turn out when COCC1(C)Cc2cc(NC(=O)c3cnn4cccnc34)c(N3CCOCC3)cc2O1 (centres unmarked) [Example 25, N-(2-(Methoxymethyl)-2-methyl-6-morpholino-2,3-dihydrobenzofuran-5-yl)pyrazolo[1,5-a]pyrimidine-3-carboxamide] was run?
The pKi was 8.00.

CNC(=O)c1cnc2c(C(=O)Nc3cc4c(cc3N3CCOCC3)C(=O)N(C[C@@H](F)C(C)(C)O)C4)cnn2c1 [Example 492, N3-[2-[(2R)-2-Fluoro-3-hydroxy-3-methyl-butyl]-6-morpholino-1-oxo-isoindolin-5-yl]-N^6-methyl-pyrazolo[1,5-a]pyrimidine-3,6-dicarboxamide] was tested. Which pKi did it give?
Its pKi is 8.04.

C[C@@]1(CO)Cc2cc(NC(=O)c3cnn4cc(Cl)cnc34)c(N3CCOCC3)cc2O1 [Example 165, (S)-6-Chloro-N-(2-(hydroxymethyl)-2-methyl-6-morpholino-2,3-dihydrobenzofuran-5-yl)pyrazolo[1,5-a]pyrimidine-3-carboxamide] was tested. Which pKi did it give?
Its pKi is 8.25.

With CC1CCCN1c1cc2c(cc1NC(=O)c1cnn3cccnc13)CC(C)(C)O2 (centres unmarked) [Example 104, N-[2,2-dimethyl-6-(2-methylpyrrolidin-1-yl)-3H-benzofuran-5-yl]pyrazolo[1,5-a]pyrimidine-3-carboxamide] as the compound, how does the pKi read?
The pKi was 7.66.

With C[C@]1(C2CC2)Cc2cc(NC(=O)c3cnn4cccnc34)c(N3CCC(F)(CO)CC3)cc2O1 [Example 161, (R)—N-(2-Cyclopropyl-6-(4-fluoro-4-(hydroxymethyl)piperidin-1-yl)-2-methyl-2,3-dihydrobenzofuran-5-yl)pyrazolo[1,5-a]pyrimidine-3-carboxamide] as the compound, how does the pKi read?
Its pKi is 8.42.

How did the pKi turn out when CC1(C)Cc2cc(NC(=O)c3cnn4cccnc34)c(C3CCN(CCO)CC3)cc2O1 [Example 357, N-(6-(1-(2-Hydroxyethyl)piperidin-4-yl)-2,2-dimethyl-2,3-dihydrobenzofuran-5-yl)pyrazolo[1,5-a]pyrimidine-3-carboxamide] was run?
The pKi was 6.39.

O=C(Nc1cc2c(cc1N1CCC(CO)CC1)O[C@](CO)(C(F)(F)F)C2)c1cnn2cccnc12 [Example 316, (R)-N-(2-(hydroxymethyl)-6-(4-(hydroxymethyl)piperidin-1-yl)-2-(trifluoromethyl)-2,3-dihydrobenzofuran-5-yl)pyrazolo[1,5-a]pyrimidine-3-carboxamide] was tested. Which pKi did it give?
Its pKi is 8.28.

CC1(C)Cc2cc(NC(=O)c3cnn4cccnc34)c(N3CC4COCC4C3)cc2O1 (centres unmarked) [Example 191, N-[6-(1,3,3a,4,6,6a-hexahydrofuro[3,4-c]pyrrol-5-yl)-2,2-dimethyl-3H-benzofuran-5-yl]pyrazolo[1,5-a]pyrimidine-3-carboxamide] was tested. Which pKi did it give?
Its pKi is 7.57.

C[C@@]1(CO)Cc2cc(NC(=O)c3cnn4cc(Cl)cnc34)c(N3CCC(CO)CC3)cc2O1 [Example 164, (S)-6-Chloro-N-(2-(hydroxymethyl)-6-(4-(hydroxymethyl)piperidin-1-yl)-2-methyl-2,3-dihydrobenzofuran-5-yl)pyrazolo[1,5-a]pyrimidine-3-carboxamide] was tested. Which pKi did it give?
Its pKi is 8.55.

With Cc1c2c(cc(NC(=O)c3cnn4cccnc34)c1N1CCOCC1)C[C@](C)(CO)O2 [Example 83, (R)—N-(2-(Hydroxymethyl)-2,7-dimethyl-6-morpholino-2,3-dihydrobenzofuran-5-yl)pyrazolo[1,5-a]pyrimidine-3-carboxamide] as the compound, how does the pKi read?
The pKi was 7.21.
